{"source": "patent US10245239B2", "about": "“Astaxanthin anti-inflammatory synergistic combinations” (Lycored Ltd., priority 2013, dated 2019)", "key": {"[1]": {"tested_on": "LPS-stimulated macrophages", "test": "NO production by LPS-stimulated macrophages", "type": "cell-based, ICR mice", "settings": "astaxanthin alone, FIG. 1", "protocol": "(§1) 100 U/ml penicillin. […] streptomycin (Beit-Haemek, Israel).\n(§2) The anti-inflammatory effect was detected by inhibition of NO production and of TNF alpha production by LPS-stimulated macrophages.\nNO levels in supernatants of cell cultures were determined by assaying nitrite levels using Griess reagent and sodium nitrite as a standard."}, "[2]": {"tested_on": "LPS-stimulated macrophages", "test": "TNF-alpha production by LPS-stimulated macrophages (ELISA)", "type": "cell-based, ICR mice", "settings": "astaxanthin alone, FIG. 3", "protocol": "as §1\nConcentrations of TNF-alpha in cell culture supernatants were quantified by ELISA kits (Biolegend, SanDiego, Calif., USA).\nas §2"}}}
{"smiles": "CC1=C(/C=C/C(C)=C/C=C/C(C)=C/C=C/C=C(C)/C=C/C=C(C)/C=C/C2=C(C)C(=O)[C@@H](O)CC2(C)C)C(C)(C)C[C@H](O)C1=O", "note": "[astaxanthin]", "values": [{"measurement": "inhibition of NO production", "setting": "[1]", "result": "in a dose dependent manner"}, {"measurement": "inhibition of TNF alpha production", "setting": "[2]", "result": "in a dose dependent manner"}]}
